EPA's ToxRefDB 2

Key:
rat [1] = conditions: Prenatal developmental toxicity study, sprague dawley, Inhalation, Whole-Body, dose end: 15 GD
mouse [2] = conditions: Carcinogenicity; cd1; Inhalation; Whole-Body; dose end: 18 month; group: systemic; systemic / pathology microscopic / liver / hemosiderosis + systemic / pathology microscopic / liver / hyperplasia + systemic / pathology …
rat [3] = conditions: Subchronic oral toxicity in rodents, wistar, Feed, dose end: 104 day, group: systemic
mouse [4] = conditions: Prenatal developmental toxicity study, other, Oral, Gavage/Intubation, dose end: 15 GD, group: developmental
mouse [5] = conditions: Subchronic inhalation toxicity, other, Whole-Body, dose end: 13 week, group: systemic
mouse [6] = conditions: Subchronic inhalation toxicity, b6c3f1, Whole-Body, dose end: 12 week, group: systemic
rat [7] = conditions: Prenatal developmental toxicity study, sprague dawley, Oral, Gavage/Intubation, dose end: 20 GD
rat [8] = conditions: Combined chronic toxicity/carcinogenicity, sprague dawley, Inhalation, Whole-Body, dose end: 2 year, group: systemic
rat [9] = conditions: Prenatal developmental toxicity study, sprague dawley, Oral, Gavage/Intubation, dose end: 15 GD
rat [10] = conditions: Subchronic inhalation toxicity, fischer, Whole-Body, dose end: 12 week, group: systemic
rat [11] = conditions: Prenatal developmental toxicity study; long evans; Inhalation; Whole-Body; dose end: 15 GD; group: developmental; systemic / in life observation / body weight / fetal weight
rat [12] = conditions: Subchronic inhalation toxicity, fischer, Whole-Body, dose end: 13 week, group: systemic
rabbit = conditions: Prenatal developmental toxicity study, himalayan, Inhalation, Whole-Body, dose end: 19 GD
mouse [13] = conditions: Multigenerational reproductive toxicity study, cd1, Oral, Water, dose end: 2 generation
mouse [14] = conditions: Subchronic inhalation toxicity, b6c3f1, Whole-Body, dose end: 13 week, group: systemic, systemic / organ weight / kidney / absolute + systemic / organ weight / kidney / relative to body weight + systemic / organ weight / liver…
rat [15] = conditions: Prenatal developmental toxicity study, sprague dawley, Dermal, Topical, dose end: 15 GD
[16] = group: developmental, systemic / in life observation / body weight / fetal weight
[17] = group: maternal, systemic / in life observation / body weight / body weight gain
[18] = systemic / clinical chemistry / sodium / sodium + systemic / in life observation / body weight / body weight gain + systemic / in life …
[19] = developmental / developmental malformation / general / [other] + developmental / developmental malformation / general / crown-rump length + …
[20] = developmental / developmental malformation / general / crown-rump length + systemic / in life observation / body weight / fetal weight
[21] = systemic / clinical chemistry / alanine aminotransferase (alt/sgpt) / alanine aminotransferase (alt/sgpt) + systemic / clinical chemistry / …
[22] = systemic / clinical chemistry / cholesterol / cholesterol + systemic / hematology / erythrocyte (rbc) count differential / erythrocyte (rbc…
[23] = systemic / in life observation / mortality / mortality + systemic / pathology gross / liver / discolored + systemic / pathology microscopic…
[24] = systemic / pathology microscopic / liver / cytomegaly
[25] = group: developmental, developmental / developmental malformation / bone / incomplete ossification + systemic / in life observation / body weight / fetal weight
[26] = group: maternal, systemic / in life observation / body weight / body weight gain + systemic / in life observation / food consumption / food consumption
[27] = systemic / organ weight / liver / relative to body weight + systemic / pathology microscopic / liver / clear cell focus + systemic / …
[28] = group: developmental, developmental / developmental malformation / general / [other] + developmental / developmental malformation / general / anasarca + …
[29] = group: maternal, reproductive / reproductive performance / resorptions / resorptions + systemic / in life observation / body weight / body weight gain + …
[30] = group: maternal, systemic / organ weight / placenta / absolute
[31] = systemic / hematology / erythrocyte (rbc) count differential / erythrocyte (rbc) + systemic / hematology / mean corpuscular (cell) volume (…
[32] = group: developmental, developmental / developmental malformation / bone / bipartite ossification + developmental / developmental malformation / bone / fused + …
[33] = group: maternal, systemic / in life observation / body weight / body weight
[34] = group: offspring, developmental / developmental malformation / bone / domed head + developmental / developmental malformation / nose / ecchymosis + systemic…
[35] = group: parental, systemic / organ weight / epididymis / absolute + systemic / organ weight / liver / absolute + systemic / organ weight / liver / relative to…
[36] = group: parental, systemic / organ weight / epididymis / absolute + systemic / organ weight / liver / absolute + systemic / pathology gross / sperm measure / …
[37] = group: reproductive, reproductive / reproductive performance / fertility / fertility + reproductive / offspring survival early / litter size / litter size + …
[38] = group: developmental, developmental / developmental malformation / general / [other] + developmental / developmental malformation / general / crown-rump length
[39] = group: maternal, systemic / organ weight / placenta / absolute + systemic / in life observation / body weight / body weight gain + systemic / in life …

CN(C)C=O [N,N-Dimethylformamide] was tested, and the LEL (rat [1]; [16]) was 300 ppm, the LOAEL (rat [1]; [16]) was > 300 ppm and the NEL (rat [1]; [16]) was 30 ppm. The NOAEL (rat [1]; [16]) was ≥ 300 ppm, the LEL (rat [1]; [17]) was 300 ppm and the LOAEL (rat [1]; [17]) was > 300 ppm. The NEL (rat [1]; [17]) was 30 ppm, the NOAEL (rat [1]; [17]) was ≥ 300 ppm and the LEL (mouse [2]) was 25 ppm. The LOAEL (mouse [2]) was > 400 ppm, the NEL (mouse [2]) was < 25 ppm and the NOAEL (mouse [2]) was ≥ 400 ppm. The LOAEL (rat [3]; [18]) was > 210 mg/kg/day, the NOAEL (rat [3]; [18]) was ≥ 210 mg/kg/day and the LEL (rat [3]; systemic / in life observation / food consumption / food consumption) was 69 mg/kg/day. For the same compound, the NEL (rat [3]; systemic / in life observation / food consumption / food consumption + systemic / in life observation / body weight / body weight gain + …) was 20 mg/kg/day, the LOAEL (mouse [4]; [19]) was > 548 mg/kg/day and the NOAEL (mouse [4]; [19]) was ≥ 548 mg/kg/day. The LEL (mouse [4]; [20]) was 182 mg/kg/day, the NEL (mouse [4]; [20]) was < 182 mg/kg/day and the LOAEL (mouse [5]; [21]) was > 800 ppm. For the same compound, the NOAEL (mouse [5]; [21]) was ≥ 800 ppm, the LEL (mouse [5]; [22]) was 50 ppm and the NEL (mouse [5]; [22]) was < 50 ppm. The LOAEL (mouse [6]; [23]) was > 1200 ppm, the NOAEL (mouse [6]; [23]) was ≥ 1200 ppm and the LEL (mouse [6]; [24]) was 150 ppm. For the same compound, the NEL (mouse [6]; [24]) was < 150 ppm, the LOAEL (rat [7]; [25]) was > 300 mg/kg/day and the NEL (rat [7]; [25]) was 50 mg/kg/day. For the same compound, the NOAEL (rat [7]; [25]) was ≥ 300 mg/kg/day, the LEL (rat [7]; [16]) was 100 mg/kg/day and the LEL (rat [7]; [26]) was 100 mg/kg/day. For the same compound, the LOAEL (rat [7]; [26]) was > 300 mg/kg/day, the NEL (rat [7]; [26]) was 50 mg/kg/day and the NOAEL (rat [7]; [26]) was ≥ 300 mg/kg/day. For the same compound, the LOAEL (rat [8]; [27]) was > 400 ppm, the NEL (rat [8]; [27]) was 25 ppm and the NOAEL (rat [8]; [27]) was ≥ 400 ppm. The LEL (rat [8]; systemic / organ weight / liver / relative to body weight + systemic / pathology microscopic / liver / hypertrophy + systemic / clinical …) was 100 ppm, the LOAEL (rat [9]; [28]) was > 1510 mg/kg/day and the NEL (rat [9]; [28]) was 166 mg/kg/day. For the same compound, the NOAEL (rat [9]; [28]) was ≥ 1510 mg/kg/day, the LEL (rat [9]; group: developmental, developmental / developmental malformation / general / [other] + developmental / developmental malformation / general / crown-rump length + …) was 503 mg/kg/day and the LOAEL (rat [9]; [29]) was > 1510 mg/kg/day. For the same compound, the NOAEL (rat [9]; [29]) was ≥ 1510 mg/kg/day, the LEL (rat [9]; [30]) was 166 mg/kg/day and the NEL (rat [9]; [30]) was < 166 mg/kg/day. The LOAEL (rat [10]; [21]) was > 1200 ppm, the NOAEL (rat [10]; [21]) was ≥ 1200 ppm and the LEL (rat [10]; systemic / clinical chemistry / alkaline phosphatase (alp/alk) / alkaline phosphatase (alp/alk)) was 300 ppm. For the same compound, the NEL (rat [10]; systemic / clinical chemistry / alkaline phosphatase (alp/alk) / alkaline phosphatase (alp/alk) + systemic / clinical chemistry / aspartate …) was 150 ppm, the LEL (rat [11]) was 172 ppm and the LOAEL (rat [11]) was > 172 ppm. The NEL (rat [11]) was 18 ppm, the NOAEL (rat [11]) was ≥ 172 ppm and the LOAEL (rat [12]; [21]) was > 800 ppm. The NOAEL (rat [12]; [21]) was ≥ 800 ppm, the LEL (rat [12]; [31]) was 50 ppm and the NEL (rat [12]; [31]) was < 50 ppm. For the same compound, the LEL (rabbit; [32]) was 450 ppm, the LOAEL (rabbit; [32]) was > 450 ppm and the NEL (rabbit; [32]) was 150 ppm. The NOAEL (rabbit; [32]) was ≥ 450 ppm, the LEL (rabbit; [33]) was 450 ppm and the LOAEL (rabbit; [33]) was > 450 ppm. For the same compound, the NEL (rabbit; [33]) was 150 ppm, the NOAEL (rabbit; [33]) was ≥ 450 ppm and the LEL (mouse [13]; [34]) was 545 mg/kg/day. The LOAEL (mouse [13]; [34]) was > 1030 mg/kg/day, the NEL (mouse [13]; [34]) was 185 mg/kg/day and the NOAEL (mouse [13]; [34]) was ≥ 1030 mg/kg/day. The LEL (mouse [13]; [35]) was 185 mg/kg/day, the NEL (mouse [13]; [35]) was < 185 mg/kg/day and the LOAEL (mouse [13]; [36]) was > 1030 mg/kg/day. The NOAEL (mouse [13]; [36]) was ≥ 1030 mg/kg/day, the NEL (mouse [13]; group: reproductive, reproductive / reproductive performance / fertility / fertility) was 185 mg/kg/day and the LEL (mouse [13]; [37]) was 545 mg/kg/day. For the same compound, the LOAEL (mouse [13]; [37]) was > 1030 mg/kg/day, the NOAEL (mouse [13]; [37]) was ≥ 1030 mg/kg/day and the LEL (mouse [14]) was 50 ppm. For the same compound, the LOAEL (mouse [14]) was > 800 ppm, the NEL (mouse [14]) was < 50 ppm and the NOAEL (mouse [14]) was ≥ 800 ppm. For the same compound, the LEL (rat [15]; [38]) was 944 mg/kg/day, the LOAEL (rat [15]; [38]) was > 944 mg/kg/day and the NEL (rat [15]; [38]) was 472 mg/kg/day. For the same compound, the NOAEL (rat [15]; [38]) was ≥ 944 mg/kg/day, the LEL (rat [15]; [30]) was 94 mg/kg/day and the NEL (rat [15]; [30]) was < 94 mg/kg/day. The LOAEL (rat [15]; [39]) was > 944 mg/kg/day and the NOAEL (rat [15]; [39]) was ≥ 944 mg/kg/day.
